According to US7723370B2, “1, 2-diaryl pyrazoles useful as analgetic and antiinflammatory agents” (Richter Gedeon Vegyeszeti Gyar RT., priority 2005, dated 2010):

Key:
Assay type in all cases: in vivo, rat
[1] = system: carrageenan induced acute hyperalgesia; assay: Carrageenan induced acute hyperalgesia in rats (Randall-Selitto model)
Experimental: (§1) Oedema (inflammation) was induced by subcutaneous injection of carrageenan (CARR) suspension in the subplantar region of the right hind paw of male Wistar rats, weighted 140-190 g (n=8-12 animal/group). The nociceptive thresholds of the inflamed hind paw after painful mechanical stimuli were measured with analgesimeter (Ugo Basile, type: 37215, Italy). The apparatus is suitable for the measuring of the extent and the latency of the pain reaction threshold of the sensitized paw after painful stimuli. The analgesics elevate the low pain reaction threshold of inflamed paw and the degree of its antinociceptive effect is expressed in reversal %.
(§2) An increasing pressure was applied to the paw and the withdrawal threshold was determined as the first sign (squeaking and/or struggling) of pain response. The pressure threshold was shown in grams. The average value of the hind paw withdrawal obtained with untreated right paw was regarded as the basal hind paw withdrawal (average 80-110 grams.) After determining the baseline threshold the animals received carrageenan injection that produced an intense inflammation associated with hyperalgesia. The mechanical threshold was determined at various times to establish the magnitude and duration of the hyperalgesia. The maximum reduction in threshold was measured 2-3 h after injection (the pain threshold of the inflamed paw is 20-30 g, which was decreased by 65-80% in comparing to the basic value).
(§3) Acute hvneralgesia model: the animals were treated with the test compounds and celecoxib (10 and 30 mg/kg p.o.) one hour after CARR treatment (100 μl 2% suspension). Pain threshold was measured at 2 and 4 hours after the treatment. Chronic hyperalgesia model: extended inflammation and decreased pain threshold were induced with higher dose of CARR. Pain threshold of inflamed paw was measured 24 hours after CARR treatment (150 μl, 2% suspension) then test compound and Celecoxib (30 mg/kg p.o.) were given to the animals. Pain threshold of treated paw was measured from 30 minutes till 3 hours after treatment.
(§4) Control groups in both models after CARR treatment were treated with vehicle p.o. at the same intervals as the test compounds. In both models the analgesic effect of the compounds was expressed in the reversal (%) of the decrease of the pain threshold. Reversal %=[mean of treated groupTxh(g)−treated groupT0h(g)]/[basic mean of treated groupT-1h(g)−treated groupT0h(g)] • T−1 h=mean of the pain threshold of paw before CARR treatment in acute model (g) • T0h=mean of the pain threshold before treatment 1 hour after CARR treatment in acute model (g) • T×h=pain threshold after CARR treatment in the measuring times (1 h, 2 h, 3 h) in acute model (g)

[2] = system: alcohol induced mucosa injury; assay: Gastric lesions induced by acidified alcohol in rats; settings: 40 minutes before ethanol+HCl, n = 10
Experimental: Male Wistar rats weighing 140-160 g were treated p.o. with a 1:0.02 mixture of dry ethanol and concentrated HCl (0.5 ml) in order to induce gastric lesions. One hour later the animals were euthanized with ether and the stomach excised along its greater curvature, the mucosa was examined for the presence of lesions.
Severity of lesions: • 1: petechiae or erosion with length of 1 mm • 2: erosion with length between 2 and 3 mm • 3: erosion with length between 3 and 4 mm • 4: erosion with length between 4 and 5 mm
If the lesion was longer than 5 mm, it was scored 4 point as many times as the total length of the lesion divisible by four and the rest of the length was evaluated according to the above scale. The degree of injury of mucosa was characterized by ulcer index. Ulcer index (severity of lesion×number of lesion) was calculated for every animal and the degree of injury of mucosa in the groups of tested animals was characterized by the mean of ulcer index of different groups of animals.
Test compounds were given p.o. 40 minutes before the ethanol+HCl treatment

[3] = system: carrageenan induced chronic hyperalgesia; assay: Carrageenan induced chronic hyperalgesia model in rats (Randall-Selitto); settings: for Analgesic effect (reversal %) after p.o. treatment: chronic model, 30 mg/kg p.o.
Experimental: as §1, §2, §3, §4

[4] = system: myocardial ischemia-reperfusion induced injury; assay: Myocardial ischemia-reperfusion induced injury in rats (cardioprotective effect); settings: 30 mg/kg i.p. 30 minutes before occlusion; control group 90%
Experimental: Effect of compound of Example 5 and celecoxib was determined in experimental myocardial ischemia-reperfusion induced injury.
Myocardial infarction was produced in male, SPRD CFY rats of 300-360 g by surgical occlusion of left anterior descending coronary artery. Briefly, the animals were anesthetized with pentobarbital (60 mg/kg i.p.) and the chest was opened, the left coronary artery was ligated for 6 minutes followed by reperfusion. Test compounds were administered i.p. in 30 and 60 mg/kg dose 30 minutes before occlusion of the coronary artery. The control group was treated with vehicle (5% TWEEN 80 in isotonic NaCl, […]).

[5] = system: carrageenan induced paw oedema; assay: Inhibition of carrageenan induced oedema in rats; settings: for ED30: p.o.
Experimental: The treated paw was immersed up to the tibio-tarsal articulation into the chamber and the volume of displaced liquid was determined as the degree of the inflammation. Degree of inflammation (ml)=volume after the CARR treatment (ml)−volume before the CARR treatment (ml)
The degree of the anti-inflammatory effect of the treated group (which obtained test agent) was compared to that of the control group (which obtained only vehicle). The test compound and the vehicle were given orally by blunt-ended needle cannula one hour before the CARR treatment. The volume of the treated paw was measured at 3 and 5 hours after the CARR treatment and the change in the degree of inflammation in % was calculated according to the following formula: Anti-inflammatory activity %=100×[control group (ml)−treated group (ml)/control group (ml)]
[…] Anti-inflammatory activity of the compounds was determined in % at 4 and 6 hours after p.o. treatment and ED30 was calculated.

[6] = system: carrageenan induced chronic hyperalgesia; assay: Carrageenan induced chronic hyperalgesia model in rats (Randall-Selitto)
[7] = system: acetic acid induced chronic gastric ulcer; assay: Acetic acid induced chronic gastric ulcer in rats
Experimental: In our experiments the method […] of Okabe et al was used. Male Wistar rats of 150-170 g were narcotize part of the stomach.
The test compound was given p.o. on the fifth day after the operation for seven days. The animals were euthanized with ether after 24 hours of the last dose and the abdomen was macroscopically examined (exravasation, accretion), the stomach was excised and the diameters of ulcers were measured.

[8] = inflammation induced chronic hyperalgesia model

With Cc1ccc(-c2cc(C(F)(F)F)nn2-c2ccc(S(=O)(=O)NOC(C)C(=O)O)cc2)cc1 (racemic) [Example 5, (R,S)-2-[4-(5-p-methylphenyl-3-trifluoromethyl-pyrazol-1-yl)-benzensulfonylamino-oxy]-propionic acid] the “Analgesic effect (reversal %) after p.o. treatment” value ([1]; 10 mg/kg p.o., 1 hour) was 24%, the “Analgesic effect (reversal %) after p.o. treatment” value ([1]; 10 mg/kg p.o., 2 hour) was 30% and the “Analgesic effect (reversal %) after p.o. treatment” value ([1]; 10 mg/kg p.o., 3 hour) was 15%. The “Analgesic effect (reversal %) after p.o. treatment” value ([1]; 30 mg/kg p.o., 1 hour) was 89%, the “Analgesic effect (reversal %) after p.o. treatment” value ([1]; 30 mg/kg p.o., 2 hour) was 59% and the “Analgesic effect (reversal %) after p.o. treatment” value ([1]; 30 mg/kg p.o., 3 hour) was 35%. It also gave a Ulcer index ([2]; 15 mg/kg p.o.) of 43.0 ± 4.4, a Ulcer index ([2]; 30 mg/kg p.o.) of 35.0 ± 4.4 and a Ulcer index ([2]; 60 mg/kg p.o.) of 15.8 ± 2.8. The “Analgesic effect (reversal %) after p.o. treatment” value ([3]; 30 min) was 42%, the “Analgesic effect (reversal %) after p.o. treatment” value ([3]; 1 hour) was 54% and the “Analgesic effect (reversal %) after p.o. treatment” value ([3]; 2 hour) was 34%. For the same compound, the “Analgesic effect (reversal %) after p.o. treatment” value ([3]; 3 hour) was 19%, the analgesic effect [3, 8] was “significant analgesic effect (p<0.01)” and the “duration of action compared with the reference compound” value [3, 8] was “several hours longer”. For the same compound, the “occurrence of serious, not mortal ventricular fibrillation during reperfusion” value [4] was 60%, the “Inhibiton of carrageenan induced edema %” value ([5]; 3 mg/kg p.o., 4 hours after treatment) was 21 ± 3% and the “Inhibiton of carrageenan induced edema %” value ([5]; 3 mg/kg p.o., 6 hours after treatment) was 20 ± 3%. For the same compound, the “Inhibiton of carrageenan induced edema %” value ([5]; 10 mg/kg p.o., 4 hours after treatment) was 40 ± 4%, the “Inhibiton of carrageenan induced edema %” value ([5]; 10 mg/kg p.o., 6 hours after treatment) was 34 ± 5% and the “Inhibiton of carrageenan induced edema %” value ([5]; 30 mg/kg p.o., 4 hours after treatment) was 49 ± 5%. For the same compound, the “Inhibiton of carrageenan induced edema %” value ([5]; 30 mg/kg p.o., 6 hours after treatment) was 40 ± 4%, the “anti-inflammatory activity compared with celecoxib” value ([5]; CARR induced oedema test) was “significantly (p<0.05) higher” and the ED30 ([5]; 4 hours after treatment) was 5.7 mg/kg. For the same compound, the ED30 ([5]; 6 hours after treatment) was 8.4 mg/kg, the “Analgesic effect (reversal %) after p.o. treatment” value ([6]; 10 mg/kg p.o., 30 min) was 23% and the “Analgesic effect (reversal %) after p.o. treatment” value ([6]; 10 mg/kg p.o., 1 hour) was 22%. For the same compound, the “Analgesic effect (reversal %) after p.o. treatment” value ([6]; 10 mg/kg p.o., 2 hour) was 28%, the “Analgesic effect (reversal %) after p.o. treatment” value ([6]; 10 mg/kg p.o., 3 hour) was 14% and the “Analgesic effect (reversal %) after p.o. treatment” value ([6]; 10 mg/kg p.o., 4 hour) was 11%. The “Analgesic effect (reversal %) after p.o. treatment” value ([6]; 30 mg/kg p.o., 4 hour) was 19%, the “Area of ulcer (mm^2)” value ([7]; 30 mg/kg p.o. for seven days) was 2.4 ± 0.7 mm^2 and the “Change of bodyweight (g) + (increase) − (decrease)” value ([7]; 30 mg/kg p.o. for seven days) was “+43 ± 5 g”. The “Recovery of acetic acid induced ulcer” value ([7]; p.o. for seven days) was “did not influence it”.
